The supplement of paper PMC8988213
Where a name gives a salt, the structure may show the parent alone.

Tests used:
[1] = system: ID211 patient-derived PDAC 2D line (post-FOLFIRINOX); experiment: normalised area under dose-response curve (viability relative to DMSO, 7 doses up to 10 µM) (fraction (AUC)); higher = less sensitive (more viability retained); details: 72 h; top dose: 10 µM
Description: (§1)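 Patient-derived 2D PDAC cells (ID188 pre-FOLFIRINOX, passage 5+27; ID211 post-FOLFIRINOX, passage 9+11), 1,500-3,000 cells/well in 96-well plates, were treated with a 415-compound Selleck library in seven concentrations (3-fold dilution series, top 10 µM) for 72 h. Viability was read by CellTiter-Glo ATP luminescence, normalised to the DMSO control, and the area under the dose-response curve was computed with the GRmetrics R package; a lower AUC means higher sensitivity.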

[2] = system: ID188 patient-derived PDAC 2D line (pre-FOLFIRINOX); experiment: as above; details: 72 h; top dose: 10 µM
Description: as §1

SMILES | normalised area under dose-response curve [1] | normalised area under dose-response curve [2]
O=C(O)c1ccc(N2C(=O)/C(=C\c3ccc(-c4ccc([N+](=O)[O-])cc4)o3)C=C2c2ccccc2)cc1 [4E1RCat] | 0.895 | 0.946
Cc1sc2c(c1C)C(c1ccc(Cl)cc1)=N[C@@H](CC(=O)OC(C)(C)C)c1nnc(C)n1-2 [(+)-JQ1] | 0.652 | 0.842
COc1cc2c(cc1OCCCN1CCCC1)N=C(N)C21CCC1 [A-366] | 0.895 | 0.983
COc1ccc(S(=O)(=O)Nc2cccnc2Nc2ccc(O)cc2)cc1 [ABT-751 (E7010)] | 0.644 | 0.794
Cc1ccccc1C(C(=O)NC1CCCCC1)N(C(=O)Cn1ccnc1C)c1cccc(F)c1 (stereo not given) [AGI-5198] | 0.804 | 0.972
O=C(Nc1cccc(C(F)(F)F)c1)Nc1cc(S(=O)(=O)NC2CC2)ccc1-c1ccsc1 [AGI-6780] | 0.842 | 0.906
NC(=O)c1ncn([C@@H]2O[C@H](CO)[C@@H](O)[C@H]2O)c1N [AICAR (Acadesine)] | 0.887 | 0.934
COCC1(CO)C(=O)C2CCN1CC2 (stereo not given) [APR-246 (PRIMA-1MET)] | 0.86 | 0.947
O=C(NC1CCNCC1)c1n[nH]cc1NC(=O)c1c(Cl)cccc1Cl [AT7519 HCl] | 0.673 | 0.725
CC(=O)N1CCC[C@H]1C(=O)N[C@@H](Cc1cnc[nH]1)C(=O)N[C@@H](CO)C(=O)N[C@@H](CS)C(=O)N[C@@H](CC(N)=O)C(N)=O [ATN-161 (Ac-PHSCN-NH2)] | 0.858 | 1
COc1cc(N2CCN(C)CC2)ccc1Nc1nccc(-c2cn(C)c3cnccc23)n1 [AZ191] | 0.867 | 0.971
Cc1ccc(NC(=O)c2cccc(C(C)(C)C#N)c2)cc1Nc1ccc2ncn(C)c(=O)c2c1 [AZ 628] | 0.634 | 0.898
N[C@@H]1CCCN(c2c(/C=C3\SC(=O)NC3=O)cccc2-c2ccccc2)C1 [AZD1208] | 0.841 | 0.958
Cc1cc(Nc2nc(N[C@@H](C)c3ncc(F)cn3)ncc2Cl)[nH]n1 [AZD1480] | 0.766 | 0.952
Cc1[nH]nc(C(F)(F)F)c1Cc1sc2c(c1C(=O)N1C[C@](C)(O)CO1)c(=O)n(C)c(=O)n2C(C)C [AZD3965] | 0.89 | 0.937
COc1cc(CCc2cc(NC(=O)c3ccc(N4CC(C)NC(C)C4)cc3)n[nH]2)cc(OC)c1 (stereo not given) [AZD4547] | 0.829 | 0.998
COc1nnc2ccc(N3CCC(c4ccc(OCCN5CCN(C)C(=O)[C@H]5C)cc4)CC3)nn12 [AZD5153] | 0.59 | 0.723
Cc1cc([C@@H](C)Nc2ccccc2C(=O)O)c2nc(N3CCOCC3)cc(=O)n2c1 [AZD6482] | 0.835 | 0.862
C[C@@H]1COCCN1c1cc(C2([S@](C)(=N)=O)CC2)nc(-c2cc[nH]c3nccc2-3)n1 [AZD6738] | 0.749 | 0.805
NC(=O)Nc1cc(-c2cccc(F)c2)sc1C(=O)N[C@H]1CCCNC1 [AZD7762] | 0.507 | 0.558
C=CCn1c(=O)c2cnc(Nc3ccc(N4CCN(C)CC4)cc3)nc2n1-c1cccc(C(C)(C)O)n1 [Adavosertib(MK-1775)] | 0.662 | 0.582
CN(C)C/C=C/C(=O)Nc1cc2c(Nc3ccc(F)c(Cl)c3)ncnc2cc1O[C@H]1CCOC1 [Afatinib (BIBW2992) Dimaleate] | 0.58 | 0.855
CCc1cc2c(cc1N1CCC(N3CCOCC3)CC1)C(C)(C)c1[nH]c3cc(C#N)ccc3c1C2=O [Alectinib hydrochloride] | 0.789 | 0.779
COc1cc(Nc2ncc3c(n2)-c2ccc(Cl)cc2C(c2c(F)cccc2OC)=NC3)ccc1C(=O)O [Alisertib (MLN8237)] | 0.88 | 0.799
O=c1[nH]cnc2[nH]ncc12 [Allopurinol Sodium] | 0.843 | 0.951

SMILES | normalised area under dose-response curve [1] | normalised area under dose-response curve [2]
Cn1c(=O)cc(N2CCC[C@@H](N)C2)n(Cc2ccccc2C#N)c1=O [Alogliptin] | 0.817 | 0.952
Cc1nc(NC(=O)N2CCC[C@H]2C(N)=O)sc1-c1ccnc(C(C)(C)C(F)(F)F)c1 [Alpelisib (BYL719)] | 0.696 | 0.892
CC(C)(C#N)c1cc(Cn2cncn2)cc(C(C)(C)C#N)c1 [Anastrozole] | 0.799 | 0.939
COc1cc(OC)c2c(=O)[nH]c(-c3cc(C)c(OCCO)c(C)c3)nc2c1 [Apabetalone (RVX-208)] | 0.837 | 0.949
Cc1c(CN2CCN(C(=O)[C@H](C)O)CC2)sc2c(N3CCOCC3)nc(-c3cnc(N)nc3)nc12 [Apitolisib (GDC-0980, RG7422)] | 0.54 | 0.606
COc1cc(C(C)=O)ccc1O [Apocynin] | 0.816 | 0.915
O=C1C(=O)N(Cc2ccc(Cl)c(Cl)c2)c2ccccc21 [Apoptosis Activator 2] | 0.969 | 0.952
CNC(=O)c1ccccc1Sc1ccc2c(/C=C/c3ccccn3)n[nH]c2c1 [Axitinib] | 0.857 | 0.898
Nc1ncn([C@@H]2O[C@H](CO)[C@@H](O)[C@H]2O)c(=O)n1 [Azacitidine] | 0.977 | 0.855
Nc1nccc(Oc2ccc3c(C(=O)Nc4cccc(C(F)(F)F)c4)cccc3c2)n1 [BAW2881 (NVP-BAW2881)] | 0.961 | 0.885
Cc1ccc(S(=O)(=O)/C=C/C#N)cc1 [BAY 11-7082] | 0.839 | 0.957
Cc1cc(-c2nc(-c3ccc(OC(F)(F)F)cc3)no2)nn1Cc1ccnc(N2CCN(C3CC3)CC2)c1 [BAY 87-2243] | 0.794 | 0.574
COc1ccc(-c2cc3nccn3c(Nc3ncccc3C(N)=O)n2)cc1OC [BAY-61-3606] | 0.79 | 0.871
Cc1c(NC(=O)c2cc(C(N)=O)nc3cc(F)ccc23)c(C(F)(F)F)nn1Cc1ccc(C#N)cc1 [BAY-876] | 0.718 | 0.826
O=c1[nH]nc(Sc2ncc([N+](=O)[O-])s2)n1-c1ccc2c(c1)OCCO2 [BI-78D3] | 0.811 | 0.965
CC(C)CCN1c2nc(Nc3cc(F)c(O)c(F)c3)ncc2N(C)C(=O)C1C (stereo not given) [BI-D1870] | 0.876 | 0.925
CNC(=O)c1cc(Oc2ccc3nc(N[C@@H]4CCCC[C@H]4O)sc3c2)ccn1 [BLZ945] | 0.914 | 0.905
COc1ccc2c(c1)c(CC(=O)N1CCOCC1)c(C)n2C(=O)c1ccc(Cl)cc1 [BML-190] | 1.01 | 0.958
COc1nc(OCc2cccc(-c3ccccc3)c2C)ccc1CNCCNC(C)=O [BMS202 (PD-1PD-L1 inhibitor 2)] | 0.905 | 0.99
O=C(Cc1ccccc1)Nc1nnc(CCSCCc2nnc(NC(=O)Cc3ccccc3)s2)s1 [BPTES] | 0.854 | 0.861
Cc1nn(C)c2c1C(c1ccc(C(F)(F)F)cc1)C(C#N)=C(N)O2 (stereo not given) [BQU57] | 0.869 | 0.933
COC(=O)c1ccc2c(c1)nc(NC(=O)c1ccccc1)n2CCCc1ccccc1 [BRD4770] | 0.836 | 0.887
O=C(NCCCNc1nc(Nc2cccc(NC(=O)N3CCCC3)c2)ncc1I)c1cccs1 [BX-795] | 0.883 | 0.885
O=C(Nc1cccc(Nc2ncc(Br)c(NCCc3cnc[nH]3)n2)c1)N1CCCC1 [BX-912] | 0.893 | 0.595
Cc1ccc(NC(=O)c2ccc(CN3CC[C@H](N(C)C)C3)c(C(F)(F)F)c2)cc1Nc1nccc(-c2cncnc2)n1 [Bafetinib (INNO-406)] | 0.841 | 0.906
